Assay results: patent US20220289708A1, “SUBSTITUTED N-PHENYL URACILS, SALTS THEREOF AND THEIR USE AS HERBICIDAL AGENTS” (Bayer Aktiengesellschaft, priority 2019, published 2022)

Assays:
Type in all cases: in vivo
[1] = test system: Echinochloa crus-galli; test: Post-emergence herbicidal action; conditions: rated visually after about 3 weeks vs untreated controls
Summary of the method: (§1)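 Activity scored visually about 3 weeks post-spray against untreated plants, on a scale where 0% equals control and 100% equals dead plants. Compounds, as WP or EC with 0.5% additive in 600 l/ha water, were applied at 20 g/ha or less onto one-leaf-stage greenhouse plants sown 2–3 weeks earlier.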

[2] = test system: Veronica persica; test: Post-emergence herbicidal action
Summary of the method: as §1

[3] = test system: Stellaria media; test: Post-emergence herbicidal action; conditions: application rate 5 g/ha, rated visually after about 3 weeks vs untreated controls
Summary of the method: as §1

[4] = test system: Digitaria sanguinalis; test: Post-emergence herbicidal action; conditions: rated visually after about 3 weeks vs untreated controls
Summary of the method: as §1

[5] = test system: Viola tricolor; test: Post-emergence herbicidal action; conditions: application rate 5 g/ha
Summary of the method: as §1

[6] = test system: Matricaria inodora; test: Post-emergence herbicidal action; conditions: rated visually after about 3 weeks vs untreated controls
Summary of the method: as §1

[7] = test system: Alopecurus myosuroides; test: Post-emergence herbicidal action; conditions: rated visually after about 3 weeks vs untreated controls
Summary of the method: as §1

[8] = test system: Pharbitis purpurea; test: Post-emergence herbicidal action; conditions: application rate 5 g/ha, rated visually after about 3 weeks vs untreated controls
Summary of the method: as §1

[9] = test system: Abutilon theophrasti; test: Post-emergence herbicidal action; conditions: rated visually after about 3 weeks vs untreated controls
Summary of the method: as §1

[10] = test system: Amaranthus retroflexus; test: Post-emergence herbicidal action; conditions: rated visually after about 3 weeks vs untreated controls
Summary of the method: as §1

[11] = test system: Setaria viridis; test: Post-emergence herbicidal action; conditions: application rate 5 g/ha, rated visually after about 3 weeks vs untreated controls
Summary of the method: as §1

[12] = test system: Polygonum convolvulus; test: Post-emergence herbicidal action; conditions: application rate 5 g/ha
Summary of the method: as §1

[13] = test system: Hordeum murinum; test: Post-emergence herbicidal action
Summary of the method: as §1

[14] = test system: Oryza sativa; test: Post-emergence crop plant compatibility; conditions: application rate 5 g/ha
Experimental: a. Post-Emergence Herbicidal Action and Crop Plant Compatibility
Seeds of monocotyledonous and dicotyledonous weeds and crop plants were placed in sandy loam in plastic or wood-fiber pots, covered with soil and cultivated in a greenhouse under controlled growth conditions. 2 to 3 weeks after sowing, the test plants were treated at the one-leaf stage. The compounds of the invention, formulated in the form of wettable powders (WP) or as emulsion concentrates (EC), were then sprayed onto the green parts of the plants as aqueous suspension or emulsion with addition of 0.5% additive at a water application rate of 600 l/ha (converted). After the test plants had been kept in the greenhouse under optimum growth conditions for about 3 weeks, the activity of the preparations was rated visually in comparison to untreated controls. For example, 100% activity=the plants have died, 0% activity=like control plants.
Tables A16 to A19 below show the crop plant compatibilities of selected compounds of the general formula (I) according to Tables I.1 to I.36 at an application rate corresponding to 5 g/ha or 20 g/ha, which were obtained in experiments according to the experimental procedure mentioned above. Here, the observed effects on selected crop plants are stated in comparison to the untreated controls (values in %).

[15] = test system: Echinochloa crus-galli; test: Pre-emergence herbicidal action; conditions: application rate 20 g/ha
Text: (§2) B. Pre-Emergence Herbicidal Action and Crop Plant Compatibility Seeds of monocotyledonous and dicotyledonous weed plants and crop plants were placed in plastic or organic planting pots and covered with soil. The compounds of the invention, formulated in the form of wettable powders (WP) or as emulsion concentrates (EC), were then applied to the surface of the covering soil as aqueous suspension or emulsion with addition of 0.5% additive at a water application rate equivalent to 600 l/ha (converted). After the treatment, the pots were placed in a greenhouse and kept under good growth conditions for the test plants. After about 3 weeks, the effect of the preparations was scored visually in comparison with untreated controls as percentages. For example, 100% activity=the plants have died, 0% activity=like control plants. Tables B1 to B13 below show the effects of selected compounds of the general formula (I) according to Tables I.1 to I.36 on various harmful plants and at an application rate corresponding to 80 g/ha or less, which were obtained by the experimental procedure mentioned above.

[16] = test system: Avena fatua; test: Pre-emergence herbicidal action; conditions: application rate 80 g/ha
Text: as §2

[17] = test system: Veronica persica; test: Pre-emergence herbicidal action; conditions: application rate 20 g/ha
Text: as §2

[18] = test system: Digitaria sanguinalis; test: Pre-emergence herbicidal action; conditions: application rate 20 g/ha
Text: as §2

[19] = test system: Viola tricolor; test: Pre-emergence herbicidal action; conditions: application rate 20 g/ha
Text: as §2

[20] = test system: Matricaria inodora; test: Pre-emergence herbicidal action; conditions: application rate 20 g/ha
Text: as §2

[21] = test system: Lolium rigidum; test: Pre-emergence herbicidal action; conditions: application rate 80 g/ha
Text: as §2

[22] = test system: Alopecurus myosuroides; test: Pre-emergence herbicidal action; conditions: application rate 80 g/ha
Text: as §2

[23] = test system: Pharbitis purpurea; test: Pre-emergence herbicidal action; conditions: application rate 20 g/ha
Text: as §2

[24] = test system: Abutilon theophrasti; test: Pre-emergence herbicidal action; conditions: application rate 20 g/ha
Text: as §2

[25] = test system: Amaranthus retroflexus; test: Pre-emergence herbicidal action; conditions: application rate 20 g/ha
Text: as §2

[26] = test system: Setaria viridis; test: Pre-emergence herbicidal action; conditions: application rate 20 g/ha
Text: as §2

[27] = test system: Polygonum convolvulus; test: Pre-emergence herbicidal action; conditions: application rate 20 g/ha
Text: as §2

[28] = test system: Avena fatua; test: Post-emergence herbicidal action; conditions: application rate 5 g/ha, rated visually after about 3 weeks vs untreated controls
Summary of the method: as §1

[29] = test system: Lolium rigidum; test: Post-emergence herbicidal action; conditions: rated visually after about 3 weeks vs untreated controls
Summary of the method: as §1

Compound | Echinochloa crus-galli (efficacy in %) ([1]; application rate 5 g/ha) [%] | Veronica persica (efficacy in %) ([2]; application rate 20 g/ha) [%] | Stellaria media (efficacy in %) [3] [%] | Digitaria sanguinalis (efficacy in %) ([4]; application rate 20 g/ha) [%] | Viola tricolor (efficacy in %) [5] [%] | Alopecurus myosuroides (efficacy in %) ([7]; application rate 5 g/ha) [%] | Pharbitis purpurea (efficacy in %) [8] [%] | Setaria viridis (efficacy in %) [11] [%] | Polygonum convolvulus (efficacy in %) [12] [%] | Hordeum murinum (efficacy in %) ([13]; application rate 20 g/ha) [%] | Oryza sativa (efficacy in %) [14] [%] | Matricaria inodora (efficacy in %) ([6]; application rate 5 g/ha) [%] | Alopecurus myosuroides (efficacy in %) ([7]; application rate 20 g/ha) [%] | Abutilon theophrasti (efficacy in %) ([9]; application rate 5 g/ha) [%] | Amaranthus retroflexus (efficacy in %) ([10]; application rate 5 g/ha) [%] | Veronica persica (efficacy in %) ([2]; application rate 5 g/ha) [%] | Digitaria sanguinalis (efficacy in %) ([4]; application rate 5 g/ha) [%] | Echinochloa crus-galli (efficacy in %) [15] [%] | Avena fatua (efficacy in %) [16] [%] | Veronica persica (efficacy in %) [17] [%] | further results
Cn1c(C(F)(F)F)cc(=O)n(-c2cc(Sc3cccnc3SCC(=O)OCC#N)c(Cl)cc2F)c1=O [I.10-176] | 100 | 80 | 100 | 100 | 100 | 80 | 90 | 100 | 100 | 80 | 20 |  |  |  |  |  |  |  |  |  | Matricaria inodora (efficacy in %) ([6]; application rate 20 g/ha): 100%; Abutilon theophrasti (efficacy in %) ([9]; application rate 20 g/ha): 100%; Amaranthus retroflexus (efficacy in %) ([10]; application rate 20 g/ha): 100%
Cn1c(C(F)(F)F)cc(=O)n(-c2cc(Sc3cccnc3SCC(=O)OC3COC3)c(Cl)cc2F)c1=O [I.10-115] |  | 100 | 100 | 100 | 100 |  | 100 | 100 | 100 | 80 | 20 | 90 | 80 | 100 | 100 |  |  |  |  |  | Echinochloa crus-galli (efficacy in %) ([1]; application rate 20 g/ha): 100%
CSCCOC(=O)COc1ncccc1Oc1cc(-n2c(=O)cc(C(F)(F)F)n(C)c2=O)c(F)cc1Cl [I.15-31] |  |  |  |  |  |  | 100 |  |  |  | 20 | 100 |  | 100 | 100 | 100 | 100 | 100 | 100 | 100 | Digitaria sanguinalis (efficacy in %) [18]: 100%; Viola tricolor (efficacy in %) [19]: 100%; Matricaria inodora (efficacy in %) [20]: 100%; Lolium rigidum (efficacy in %) [21]: 100%; Alopecurus myosuroides (efficacy in %) [22]: 100%; Pharbitis purpurea (efficacy in %) [23]: 100%; Abutilon theophrasti (efficacy in %) [24]: 100%; Amaranthus retroflexus (efficacy in %) [25]: 100%; Setaria viridis (efficacy in %) [26]: 100%; Polygonum convolvulus (efficacy in %) [27]: 100%
COCCOCCOC(=O)COc1ncccc1Oc1cc(-n2c(=O)cc(C(F)(F)F)n(C)c2=O)c(F)cc1Cl [I.15-23] | 100 |  | 100 |  | 100 |  | 100 | 100 | 100 |  |  | 90 | 100 | 100 | 100 | 100 | 100 |  |  |  | Avena fatua (efficacy in %) [28]: 80%; Lolium rigidum (efficacy in %) ([29]; application rate 5 g/ha): 80%; Hordeum murinum (efficacy in %) ([13]; application rate 5 g/ha): 80%
COCCOC(=O)COc1ncccc1Oc1cc(-n2c(=O)cc(C(F)(F)F)n(C)c2=O)c(F)cc1Cl [I.15-1] | 100 |  | 100 |  | 100 | 80 | 100 | 100 | 100 | 100 |  | 100 |  | 100 | 100 | 100 | 100 |  |  |  | Avena fatua (efficacy in %) [28]: 90%; Lolium rigidum (efficacy in %) ([29]; application rate 20 g/ha): 100%
Cn1c(C(F)(F)F)cc(=O)n(-c2cc(Oc3cccnc3OCC(=O)OCc3ccncc3)c(Cl)cc2F)c1=O [I.15-288] | 100 |  |  |  |  |  | 100 |  |  |  | 0 | 90 |  | 100 | 100 | 100 |  | 80 | 100 | 100 | Digitaria sanguinalis (efficacy in %) [18]: 100%; Viola tricolor (efficacy in %) [19]: 100%; Matricaria inodora (efficacy in %) [20]: 100%; Lolium rigidum (efficacy in %) [21]: 100%; Alopecurus myosuroides (efficacy in %) [22]: 100%; Pharbitis purpurea (efficacy in %) [23]: 100%; Abutilon theophrasti (efficacy in %) [24]: 100%; Amaranthus retroflexus (efficacy in %) [25]: 100%; Setaria viridis (efficacy in %) [26]: 100%; Polygonum convolvulus (efficacy in %) [27]: 100%
